Laboratory results reported in US20220119354A1, “DIAMINO-SUBSTITUTED PYRIDINES AND PYRIMIDINES AS HERBICIDES” (FMC Corporation, priority 2019, published 2022).

Tests used:
Assay type in all cases: in vivo
[1] = system: barnyardgrass (Echinochloa crus-galli); assay: Test A preemergence, barnyardgrass; conditions: 0 to 100 scale, 0 is no effect, 100 is complete control
In short: (§1)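 Greenhouse test; plants at one- to two-leaf stage (2–10 cm) sprayed postemergence with compound in non-phytotoxic solvent/surfactant mix, or soil sprayed preemergence after seeding in loam–sand blend. Injury rated visually versus untreated controls after about 10 d, 0 (no effect) to 100 (complete control).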

kochia (Kochia scoparia) [2] = assay: Test A preemergence, kochia; conditions: 0 to 100 scale, 0 is no effect, 100 is complete control
In short: as §1

[3] = system: ragweed (common ragweed, Ambrosia elatior); assay: Test A preemergence, ragweed; conditions: 0 to 100 scale, 0 is no effect, 100 is complete control
In short: as §1

[4] = system: ryegrass, Italian (Lolium multiflorum); assay: Test A preemergence, Italian ryegrass; conditions: 0 to 100 scale, 0 is no effect, 100 is complete control
In short: as §1

[5] = system: foxtail, giant (Setaria faberii); assay: Test A preemergence, giant foxtail; conditions: 0 to 100 scale, 0 is no effect, 100 is complete control
In short: as §1

[6] = system: pigweed (Amaranthus retroflexus); assay: Test A preemergence, pigweed; conditions: 0 to 100 scale, 0 is no effect, 100 is complete control
In short: as §1

[7] = system: barnyardgrass (Echinochloa crus-galli); assay: Test A postemergence, barnyardgrass; conditions: 0 to 100 scale; for Plant response rating, Barnyardgrass: 125 g ai/ha, 0 no effect, 100 complete control; for Barnyardgrass plant response rating: 500 g ai/ha, 0 is no effect, 100 is complete control
In short: as §1

kochia (Kochia scoparia) [8] = assay: Test A postemergence, kochia; conditions: 0 to 100 scale; for Plant response rating, Kochia: 125 g ai/ha, 0 no effect, 100 complete control; for Kochia plant response rating: 500 g ai/ha, 0 is no effect, 100 is complete control
In short: as §1

[9] = system: ragweed (common ragweed, Ambrosia elatior); assay: Test A postemergence, ragweed; conditions: 0 to 100 scale; for Plant response rating, Ragweed: 125 g ai/ha, 0 no effect, 100 complete control; for Ragweed plant response rating: 500 g ai/ha, 0 is no effect, 100 is complete control
In short: as §1

[10] = system: ryegrass, Italian (Lolium multiflorum); assay: Test A postemergence, Italian ryegrass; conditions: 0 to 100 scale; for Plant response rating, Ryegrass, Italian: 125 g ai/ha, 0 no effect, 100 complete control; for Ryegrass, Italian plant response rating: 500 g ai/ha, 0 is no effect, 100 is complete control
In short: as §1

[11] = system: foxtail, giant (Setaria faberii); assay: Test A postemergence, giant foxtail; conditions: 0 to 100 scale; for Plant response rating, Foxtail, Giant: 125 g ai/ha, 0 no effect, 100 complete control; for Foxtail, Giant plant response rating: 500 g ai/ha, 0 is no effect, 100 is complete control
In short: as §1

[12] = system: pigweed (Amaranthus retroflexus); assay: Test A postemergence, pigweed; conditions: 0 to 100 scale; for Plant response rating, Pigweed: 125 g ai/ha, 0 no effect, 100 complete control; for Pigweed plant response rating: 500 g ai/ha, 0 is no effect, 100 is complete control
In short: as §1

[13] = system: wheat (Triticum aestivum); assay: Test A postemergence, wheat; conditions: 0 to 100 scale; for Plant response rating, Wheat: 125 g ai/ha, 0 no effect, 100 complete control; for Wheat plant response rating: 500 g ai/ha, 0 is no effect, 100 is complete control
In short: as §1

corn (Zea mays) = assay: Test A postemergence, corn; conditions: 0 to 100 scale; for Plant response rating, Corn: 125 g ai/ha, 0 no effect, 100 complete control; for Corn plant response rating: 500 g ai/ha, 0 is no effect, 100 is complete control
In short: as §1

[14] = system: blackgrass (Alopecurus myosuroides); assay: Test A postemergence, blackgrass; conditions: 0 to 100 scale; for Plant response rating, Blackgrass: 125 g ai/ha, 0 no effect, 100 complete control; for Blackgrass plant response rating: 500 g ai/ha, 0 is no effect, 100 is complete control
In short: as §1

[15] = system: galium (catchweed bedstraw, Galium aparine); assay: Test A postemergence, galium; conditions: 0 to 100 scale; for Plant response rating, Galium: 125 g ai/ha, 0 no effect, 100 complete control; for Galium plant response rating: 500 g ai/ha, 0 is no effect, 100 is complete control
In short: as §1

rice (Oryza sativa) = assay: Test B flooded paddy test, rice; conditions: Flood, 250 g ai/ha, applied to paddy water, 2-leaf stage, visual evaluation after 13 to 15 d
In short: (§2)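 Each response is a visual 0–100 rating made against untreated controls, where 0 is no effect and 100 is complete control; a dash marks no result. Compound was dosed into 3 cm paddy water over 2-leaf plants, assessed after 13 to 15 d.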

[16] = system: sedge, umbrella (small-flower umbrella sedge, Cyperus difformis); assay: Test B flooded paddy test, umbrella sedge; conditions: Flood, 250 g ai/ha, applied to paddy water, 2-leaf stage, visual evaluation after 13 to 15 d
In short: as §2

[17] = system: ducksalad (Heteranthera limosa); assay: Test B flooded paddy test, ducksalad; conditions: Flood, 250 g ai/ha, applied to paddy water, 2-leaf stage, visual evaluation after 13 to 15 d
In short: as §2

[18] = system: barnyardgrass (Echinochloa crus-galli); assay: Test B flooded paddy test, barnyardgrass; conditions: Flood, 250 g ai/ha, applied to paddy water, 2-leaf stage, visual evaluation after 13 to 15 d
In short: as §2

CC[C@H](Nc1ncc(C(F)(F)F)c(N)n1)c1cc2ccc(F)cc2s1 [Compound 49]
Barnyardgrass plant response rating ([1]; 125 g ai/ha): 0 | Barnyardgrass plant response rating ([1]; 500 g ai/ha): 0 | Kochia plant response rating (kochia (Kochia scoparia) [2]; 125 g ai/ha): 0 | Kochia plant response rating (kochia (Kochia scoparia) [2]; 500 g ai/ha): 0 | Ragweed plant response rating ([3]; 125 g ai/ha): 0 | Ragweed plant response rating ([3]; 500 g ai/ha): 0 | Ryegrass, Italian plant response rating ([4]; 125 g ai/ha): 0 | Ryegrass, Italian plant response rating ([4]; 500 g ai/ha): 0 | Foxtail, Giant plant response rating ([5]; 125 g ai/ha): 0 | Foxtail, Giant plant response rating ([5]; 500 g ai/ha): 0 | Pigweed plant response rating ([6]; 125 g ai/ha): 0 | Pigweed plant response rating ([6]; 500 g ai/ha): 0 | Plant response rating, Barnyardgrass [7]: 0 | Barnyardgrass plant response rating [7]: 0 | Plant response rating, Kochia (kochia (Kochia scoparia) [8]): 0 | Kochia plant response rating (kochia (Kochia scoparia) [8]): 0 | Plant response rating, Ragweed [9]: 0 | Ragweed plant response rating [9]: 0 | Plant response rating, Ryegrass, Italian [10]: 0 | Ryegrass, Italian plant response rating [10]: 0 | Plant response rating, Foxtail, Giant [11]: 0 | Foxtail, Giant plant response rating [11]: 10 | Plant response rating, Pigweed [12]: 0 | Pigweed plant response rating [12]: 50 | Plant response rating, Wheat [13]: 0 | Wheat plant response rating [13]: 0 | Plant response rating, Corn (corn (Zea mays)): 0 | Corn plant response rating (corn (Zea mays)): 0 | Plant response rating, Blackgrass [14]: 0 | Blackgrass plant response rating [14]: 0 | Plant response rating, Galium [15]: 0 | Galium plant response rating [15]: 0 | Plant response rating, Rice (0 to 100 scale, 0 is no effect, 100 is complete control) (rice (Oryza sativa)): 0 | Plant response rating, Sedge, Umbrella (0 to 100 scale, 0 is no effect, 100 is complete control) [16]: 0 | Plant response rating, Ducksalad (0 to 100 scale, 0 is no effect, 100 is complete control) [17]: 0 | Plant response rating, Barnyardgrass (0 to 100 scale, 0 is no effect, 100 is complete control) [18]: 0

CC(C)[C@@H](Nc1ncc(C(F)(F)F)c(N)n1)c1cc2ccccc2s1 [Compound 50]
Barnyardgrass plant response rating ([1]; 125 g ai/ha): 0 | Barnyardgrass plant response rating ([1]; 500 g ai/ha): 10 | Kochia plant response rating (kochia (Kochia scoparia) [2]; 125 g ai/ha): 40 | Kochia plant response rating (kochia (Kochia scoparia) [2]; 500 g ai/ha): 60 | Ragweed plant response rating ([3]; 125 g ai/ha): 0 | Ragweed plant response rating ([3]; 500 g ai/ha): 0 | Ryegrass, Italian plant response rating ([4]; 125 g ai/ha): 0 | Ryegrass, Italian plant response rating ([4]; 500 g ai/ha): 0 | Foxtail, Giant plant response rating ([5]; 125 g ai/ha): 0 | Foxtail, Giant plant response rating ([5]; 500 g ai/ha): 10 | Pigweed plant response rating ([6]; 125 g ai/ha): 0 | Pigweed plant response rating ([6]; 500 g ai/ha): 40 | Plant response rating, Barnyardgrass [7]: 0 | Barnyardgrass plant response rating [7]: 0 | Plant response rating, Kochia (kochia (Kochia scoparia) [8]): 20 | Kochia plant response rating (kochia (Kochia scoparia) [8]): 60 | Plant response rating, Ragweed [9]: 0 | Ragweed plant response rating [9]: 30 | Plant response rating, Ryegrass, Italian [10]: 30 | Ryegrass, Italian plant response rating [10]: 0 | Plant response rating, Foxtail, Giant [11]: 0 | Foxtail, Giant plant response rating [11]: 40 | Plant response rating, Pigweed [12]: 60 | Pigweed plant response rating [12]: 90 | Plant response rating, Wheat [13]: 0 | Wheat plant response rating [13]: 0 | Plant response rating, Corn (corn (Zea mays)): 0 | Corn plant response rating (corn (Zea mays)): 10 | Plant response rating, Blackgrass [14]: 0 | Blackgrass plant response rating [14]: 0 | Plant response rating, Galium [15]: 10 | Galium plant response rating [15]: 20 | Plant response rating, Rice (0 to 100 scale, 0 is no effect, 100 is complete control) (rice (Oryza sativa)): 0 | Plant response rating, Sedge, Umbrella (0 to 100 scale, 0 is no effect, 100 is complete control) [16]: 0 | Plant response rating, Ducksalad (0 to 100 scale, 0 is no effect, 100 is complete control) [17]: 0 | Plant response rating, Barnyardgrass (0 to 100 scale, 0 is no effect, 100 is complete control) [18]: 0
